pIC50: −log10 of the molar value.
Tested on: CN0375-F725-PDC KRAS spheroid viability
Experiment: Anticancer human tumor CN0375-F725-PDC patient-derived colon carcinoma cell line growth inhibition [KRAS2]
Conditions: spheroids with HUVEC and MSC; for pIC50: curve of first compound; for viability, T/C: stronger effect = lower value
Method in brief: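 KRAS-mutant tumor cells were grown as spheroids with HUVEC endothelial cells and human MSCs as stroma. Targeted agents were tested alone and with KRAS pathway inhibitors. Doses started at or near clinical Cmax, or 10 microM, descending half-log.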

[1] = second compound 0.1 µM, first compound 0.00316 µM
[2] = second compound 0.1 µM, first compound 0.01 µM
[3] = second compound 0.1 µM, first compound 0.0316 µM
[4] = second compound 0.1 µM, first compound 0.1 µM
[5] = second compound 0.316 µM, first compound 0.00316 µM
[6] = second compound 0.316 µM, first compound 0.01 µM
[7] = second compound 0.316 µM, first compound 0.0316 µM
[8] = second compound 0.316 µM, first compound 0.1 µM
[9] = second compound 1 µM, first compound 0.00316 µM
[10] = second compound 1 µM, first compound 0.01 µM
[11] = second compound 1 µM, first compound 0.0316 µM
[12] = second compound 1 µM, first compound 0.1 µM
[13] = second compound 3.16 µM, first compound 0.00316 µM
[14] = second compound 3.16 µM, first compound 0.01 µM
[15] = second compound 3.16 µM, first compound 0.0316 µM
[16] = second compound 3.16 µM, first compound 0.1 µM
[17] = second compound 10 µM, first compound 0.00316 µM
[18] = second compound 10 µM, first compound 0.01 µM
[19] = second compound 10 µM, first compound 0.0316 µM
[20] = second compound 10 µM, first compound 0.1 µM
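Note: spheroids exposed to agents for 7 days.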

| SMILES | pIC50 (second compound 0.1 µM) | pIC50 (second compound 0.316 µM) | pIC50 (second compound 1 µM) | pIC50 (second compound 3.16 µM) | pIC50 (second compound 10 µM) | viability, T/C [1] [%] | viability, T/C [2] [%] | viability, T/C [3] [%] | viability, T/C [4] [%] | viability, T/C [5] [%] | viability, T/C [6] [%] | viability, T/C [7] [%] | viability, T/C [8] [%] | viability, T/C [9] [%] | viability, T/C [10] [%] | viability, T/C [11] [%] | viability, T/C [12] [%] | viability, T/C [13] [%] | viability, T/C [14] [%] | viability, T/C [15] [%] | other results |
| --- | --- | --- | --- | --- | --- | --- | --- | --- | --- | --- | --- | --- | --- | --- | --- | --- | --- | --- | --- | --- | --- |
| CCN1CCN(Cc2ccc(Nc3ncc(F)c(-c4cc(F)c5nc(C)n(C(C)C)c5c4)n3)nc2)CC1 + C=CC(=O)N1CCN(c2nc(=O)n(-c3c(C)ccnc3C(C)C)c3nc(-c4c(O)cccc4F)c(F)cc23)C(C)C1 | < 6.00 | < 6.00 | < 6.00 | < 6.00 | 6.02 | 105 | 96.2 | 88.9 | 96.4 | 106 | 105 | 86.8 | 91.2 | 104 | 107 | 89.6 | 98.7 | 108 | 107 | 93.9 | viability, T/C (second compound 0.1 µM, first compound 0.316 µM): 107%; viability, T/C (second compound 0.1 µM, first compound 1 µM): 95.4%; viability, T/C (second compound 0.316 µM, first compound 0.316 µM): 107%; viability, T/C (second compound 0.316 µM, first compound 1 µM): 98.3%; viability, T/C (second compound 1 µM, first compound 0.316 µM): 115%; viability, T/C (second compound 1 µM, first compound 1 µM): 105%; viability, T/C [16]: 90.7%; viability, T/C (second compound 3.16 µM, first compound 0.316 µM): 111%; viability, T/C (second compound 3.16 µM, first compound 1 µM): 102%; viability, T/C [17]: 101%; viability, T/C [18]: 108%; viability, T/C [19]: 87.8%; viability, T/C [20]: 80.7%; viability, T/C (second compound 10 µM, first compound 0.316 µM): 97.8%; viability, T/C (second compound 10 µM, first compound 1 µM): 47.8% |
| Cn1ncnc1[C@H]1c2n[nH]c(=O)c3cc(F)cc(c23)N[C@@H]1c1ccc(F)cc1 + C=CC(=O)N1CCN(c2nc(=O)n(-c3c(C)ccnc3C(C)C)c3nc(-c4c(O)cccc4F)c(F)cc23)C(C)C1 | < 7.00 | < 7.00 | < 7.00 | < 7.00 | < 7.00 | 100 | 103 | 102 | 98.2 | 104 | 96.3 | 99.3 | 99.9 | 109 | 104 | 104 | 99.5 | 108 | 104 | 108 | viability, T/C (second compound 0.1 µM, first compound 0.000316 µM): 110%; viability, T/C (second compound 0.1 µM, first compound 0.001 µM): 103%; viability, T/C (second compound 0.316 µM, first compound 0.000316 µM): 107%; viability, T/C (second compound 0.316 µM, first compound 0.001 µM): 114%; viability, T/C (second compound 1 µM, first compound 0.000316 µM): 107%; viability, T/C (second compound 1 µM, first compound 0.001 µM): 104%; viability, T/C (second compound 3.16 µM, first compound 0.000316 µM): 114%; viability, T/C (second compound 3.16 µM, first compound 0.001 µM): 110%; viability, T/C [16]: 99.7%; viability, T/C (second compound 10 µM, first compound 0.000316 µM): 112%; viability, T/C (second compound 10 µM, first compound 0.001 µM): 106%; viability, T/C [17]: 99.3%; viability, T/C [18]: 96.8%; viability, T/C [19]: 95.7%; viability, T/C [20]: 93.5% |
